Experimental data: patent US8138168B1 (Takeda Pharmaceutical Company Limited, priority 2007, dated 2012)

Biological target: T1, Recombinant human renin (Homo sapiens, UniProt P00797)
T1 construct: isolate the active form (residues 67-406); made in house; host or cells: FreeStyle 293-F cells (transient expression of pcDNA3.1(+)/hREN)
T1 sequence (P00797 67-406): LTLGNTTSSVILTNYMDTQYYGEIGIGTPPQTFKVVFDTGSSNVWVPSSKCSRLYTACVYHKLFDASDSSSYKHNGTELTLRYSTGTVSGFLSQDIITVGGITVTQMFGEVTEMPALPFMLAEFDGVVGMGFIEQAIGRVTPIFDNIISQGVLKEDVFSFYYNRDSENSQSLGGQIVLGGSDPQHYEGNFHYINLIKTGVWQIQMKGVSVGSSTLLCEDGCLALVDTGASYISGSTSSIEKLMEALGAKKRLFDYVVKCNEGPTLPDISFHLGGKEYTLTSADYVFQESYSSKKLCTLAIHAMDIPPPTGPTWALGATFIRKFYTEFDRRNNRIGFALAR
Assay: In vitro enzymatic activity assay of renin inhibitors (fluorogenic peptide substrate)
Assay type: biochemical
Conditions: read-out: IC50 of Exemplified Compounds Against Renin
Summary of the method: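 Enzyme: recombinant human renin, 3 nM final, 10 min compound pre-incubation at 37 °C; buffer 50 mM Hepes pH 7.4 with 0.1 mg/mL BSA or extra 2% BSA; 5% DMSO.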

Structure (SMILES)	IC50 [nM]
COCCCn1c([C@@H]2CCCN(C(=O)[C@@H]3CN(c4ccc([N+](=O)[O-])cc4)C[C@H]3N)C2)nc2ccccc21 [Compound 508, ((3R,4S)-4-amino-1-(4-nitrophenyl)pyrrolidin-3-yl)((R)-3-(1-(3-methoxypropyl)-1H-benzo[d]limidazol-2-yl)piperidin-1-yl)methanone]	100 to 1000
COCCCn1c([C@@H]2CCCN(C(=O)C[C@H](N)Cc3ccc(-c4ccccc4Cl)cc3)C2)nc2ccccc21 [Compound 155, (R)-3-amino-4-(2′-chlorobiphenyl-4-yl)-1-((R)-3-(1-(3-methoxypropyl)-1H-benzo[d]imidazol-2-yl)piperidin-1-yl)butan-1-one]	< 100
COCCCn1c([C@@H]2CCCN(C(=O)C[C@H](N)Cc3ccc(-c4ccc(N)nc4)cc3)C2)nc2c(F)cccc21 [Compound 452, (R)-3-amino-4-(4-(6-aminopyridin-3-yl)phenyl)-1-((R)-3-(4-fluoro-1-(3-methoxypropyl)-1H-benzo[d]imidazol-2-yl)piperidin-1-yl)butan-1-one]	< 100
COCCCn1c([C@@H]2CCCN(C(=O)[C@@H]3CN(C(=O)c4ccc(Cl)c(Cl)c4)C[C@H]3N)C2)nc2ccccc21 [Compound 365, ((3R,4S)-4-amino-1-(3,4-dichlorobenzoyl)pyrrolidin-3-yl)((R)-3-(1-(3-methoxypropyl)-1H-benzo[d]imidazol-2-yl)piperidin-1-yl)methanone]	100 to 1000
COCCCn1c([C@@H]2CCCN(C(=O)C[C@H](N)CNC(=O)c3ccc4ccccc4c3)C2)nc2ccccc21 [Compound 249, N-((S)-2-amino-4-((R)-3-(1-(3-methoxypropyl)-1H-benzo[d]imidazol-2-yl)piperidin-1-yl)-4-oxobutyl)-2-naphthamide]	< 100
COCCCn1c([C@@H]2CCCN(C(=O)C[C@H](N)Cc3ccc(-c4ccc(OCC5CC5)nc4)cc3)C2)nc2ccccc21 [Compound 143, (R)-3-amino-4-(4-(6-(cyclopropylmethoxy)pyridin-3-yl)phenyl)-1-((R)-3-(1-(3-methoxypropyl)-1H-benzo[d]imidazol-2-yl)piperidin-1-yl)butan-1-one]	< 100
COCCCn1c([C@@H]2CCCN(C(=O)C[C@H](N)Cc3ccc(-c4ccc(C(N)=O)cc4)cc3)C2)nc2ccccc21 [Compound 168, 4′-((R)-2-Amino-4-((R)-3-(1-(3-methoxypropyl)-1H-benzo[d]imidazol-2-yl)piperidin-1-yl)-4-oxobutyl)biphenyl-4-carboxamide]	< 100
COCCCn1c([C@@H]2CCCN(C(=O)[C@@H]3CN(C(=O)C4CCCCC4)C[C@H]3N)C2)nc2ccccc21 [Compound 405, ((3R,4S)-4-amino-1-(cyclohexanecarbonyl)pyrrolidin-3-yl)((R)-3-(1-(3-methoxypropyl)-1H-benzo[d]imidazol-2-yl)piperidin-1-yl)methanone]	> 1000
COCCCn1c([C@@H]2CCCN(C(=O)C[C@H](N)Cc3ccc(-c4ccnc(F)c4)cc3)C2)nc2ccccc21 [Compound 150, (R)-3-amino-4-(4-(2-fluoropyridin-4-yl)phenyl)-1-((R)-3-(1-(3-methoxypropyl)-1H-benzo[d]imidazol-2-yl)piperidin-1-yl)butan-1-one]	< 100

Results, then the molecule that gave them:

IC50 [nM]	Structure (SMILES)
100 to 1000	CC(=O)NCCn1c([C@@H]2CCCN(C(=O)C[C@H](N)Cc3ccc4ccccc4c3)C2)nc2ccccc21 [Compound 239, N-(2-(2-((R)-1((R)-3-amino-4-(naphthalen-2-yl)butanoyl)piperidin-3-yl)-1H-benzo[d]imidazol-1-yl)ethyl)acetamide]
< 100	COCCCn1c([C@@H]2CCCN(C(=O)C[C@H](N)Cc3ccc(-c4ccnc(O)c4)cc3)C2)nc2c(F)cccc21 [Compound 444, (R)-3-amino-1-((R)-3-(4-fluoro-1-(3-methoxypropyl)-1H-benzo[d]imidazol-2-yl)piperidin-1-yl)-4-(4-(2-hydroxypyridin-4-yl)phenyl)butan-1-one]
100 to 1000	COCCCn1c([C@@H]2CCCN(C(=O)C[C@H](N)CNC(=O)c3cccc(C(=O)OC)c3)C2)nc2ccccc21 [Compound 282, methyl 3-((S)-2-amino-4-((R)-3-(1-(3-methoxypropyl)-1H-benzo[d]imidazol-2-yl)piperidin-1-yl)-4-oxobutylcarbamoyl)benzoate]
100 to 1000	COCCCn1c([C@@H]2CCCN(C(=O)C[C@H](N)Cc3ccc4ccccc4c3)C2)nc2cccc(OC)c21 [Compound 108, (R)-3-amino-1-((R)-3-(7-methoxy-1-(3-methoxypropyl)-1H-benzo[d]imidazol-2-yl)piperidin-1-yl)-4-(naphthalen-2-yl)butan-1-one]
> 1000	N[C@H](Cc1ccccc1)C(=O)N1CCCC(c2nc3ccccc3[nH]2)C1 (stereo partly drawn) [Compound 58, (2R)-1-(3-(1H-benzo[d]imidazol-2-yl)piperidin-1-yl)-2-amino-3-phenylpropan-1-one]
> 1000	COCCCn1c([C@@H]2CCCN(C(=O)[C@@H]3CN(C(=O)Nc4ccccc4Cl)C[C@H]3N)C2)nc2ccccc21 [Compound 389, (3S,4R)-3-amino-N-(2-chlorophenyl)-4-((R)-3-(1-(3-methoxypropyl)-1H-benzo[d]imidazol-2-yl)piperidine-1-carbonyl)pyrrolidine-1-carboxamide]
< 100	COCCCn1c([C@@H]2CCCN(C(=O)C[C@H](N)Cc3ccc(-c4ccc(N5CCOCC5)cc4)cc3)C2)nc2ccccc21 [Compound 128, (R)-3-amino-1-((R)-3-(1-(3-methoxypropyl)-1H-benzo[d]imidazol-2-yl)piperidin-1-yl)-4-(4′-morpholinobiphenyl-4-yl)butan-1-one]
< 100	COCCCn1c([C@@H]2CCCN(C(=O)C[C@H](N)Cc3ccc(-c4ccc(C(=O)N[C@H](C)CO)cc4)cc3)C2)nc2ccccc21 [Compound 186, 4′-((R)-2-amino-4-((R)-3-(1-(3-methoxypropyl)-1H-benzo[d]imidazol-2-yl)piperidin-1-yl)-4-oxobutyl)-N-((R)-1-hydroxypropan-2-yl)biphenyl-4-carboxamide]
< 100	COCCCn1c([C@@H]2CCCN(C(=O)C[C@H](N)Cc3ccc(-c4ccc5c(c4)CCO5)cc3)C2)nc2c(C)cccc21 [Compound 493, (R)-3-amino-4-(4-(2,3-dihydrobenzofuran-5-yl)phenyl)-l-((R)-3-(1-(3-methoxypropyl)-4-methyl-1H-benzo[d]imidazol-2-yl)piperidin-1-yl)butan-1-one]
100 to 1000	COCCCn1c([C@@H]2CCCN(C(=O)[C@@H]3CN(S(=O)(=O)c4cccc(-c5ccnc(C)n5)c4)C[C@H]3N)C2)nc2ccccc21 [Compound 430, ((3R,4S)-4-amino-1-(3-(2-methylpyrimidin-4-yl)phenylsulfonyl)pyrrolidin-3-yl)((R)-3-(1-(3-methoxypropyl)-1H-benzo[d]imidazol-2-yl)piperidin-1-yl)methanone]
< 100	COCCCn1c([C@@H]2CCCN(C(=O)C[C@H](N)Cc3ccc4ccccc4c3)C2)nc2cc(C)ccc21 [Compound 105, (R)-3-amino-1((R)-3-(1-(3-methoxypropyl)-5-methyl-1H-benzo[d]imidazol-2-yl)piperidin-1-yl)-4-(naphthalen-2-yl)butan-1-one]
< 100	COCCCn1c([C@@H]2CCCN(C(=O)C[C@H](N)Cc3ccc(-c4ccncc4Cl)cc3)C2)nc2ccccc21 [Compound 131, (R)-3-amino-4-(4-(3-chloropyridin-4-yl)phenyl)-1-((R)-3-(1-(3-methoxypropyl)-1H-benzo[d]imidazol-2-yl)piperidin-1-yl)butan-1-one]
